Article PMC4076215, “Nickel(II) Complex of Polyhydroxybenzaldehyde N4-Thiosemicarbazone Exhibits Anti-Inflammatory Activity by Inhibiting NF-κB Transactivation” (PLoS ONE, 2014)
≈ marks a conversion by molar mass, not a printed value.

Key:
ORAC antioxidant assay = type: physicochemical
Protocol: ORAC assay was performed based on reported procedures with slight modifications. Chemicals used such as fluorescein sodium salt, AAPH (2,2′-Azobis(2-methylpropionamidine) dihydrochloride), quercetin dehydrate and trolox ((±)-6-Hydroxy-2,5,7,8-tetramethylchromane-2-carboxylic acid) were purchased from Sigma-Aldrich. Compounds were diluted to a final concentration of 100 µg/ml, with total reaction volume of 200 µl. The assay was performed in a 96-well black microplate, with 25 µl of samples, standard (trolox), blank (solvent/PBS) or positive control (quercetin). Subsequently, 150 µl of working fluorescein solution was added to each well. The plate was incubated at 37°C for at least 5 min. Then, 25 µl of AAPH working solution was then added to the wells to make a total volume of 200 µl. […] Data were collected every 2 min for a duration of 2 h, and were analyzed by calculating the differences of area under fluorescence decay curve (AUC) of samples and blank. The values were expressed as Trolox equivalent (TE).
ROS may amplify inflammatory responses via up-regulation or activation of certain genes/transcription factors, such as NF-κB. […] Therefore, we conducted ORAC assays to investigate the antioxidant capacity of complex 5. The ORAC assay uses peroxyl radical as pro-oxidant and the antioxidant activity is quantified via area under curve (AUC). We included quercetin, a known antioxidant, as a positive control.

HeLa S3 cells = assay: Cell proliferation (MTT) assay, HeLa S3; conditions: for IC50: Homo sapiens, HeLa S3, 48 h, read-out: IC50 (cell viability, MTT); for IC50 (cell viability, MTT): HeLa S3 cells, 48 h treatment
Protocol: (§1) A total number of 1.0×10^4 cells per well were seeded into a 96-well plate and incubated overnight at 37°C in 5% CO2. The next day, the cells were treated with a two-fold serial dilution of compounds. MTT assays were performed as described [27]. After 48 h, (4,5-dimethylthiazol-2-yl-2,5-diphenyltetrazoliumbromide) was added at 2 mg/ml. After 3 h of incubation at 37°C in 5% CO2, DMSO was added to dissolve the formazan crystals. The plates were then read in Chameleon multitechnology microplate reader (Hidex, Turku, Finland) at 570 nm absorbance. The ratio of the absorbance of treated cells to the absorbance of DMSO-treated control cells was determined as percentage cell viability.
(§2) To examine whether synthesized Ni(II) thiosemicarbazone ligands or Ni(II)-phosphine complexes were cytotoxic, we treated RAW264.7 (leukemic monocyte macrophage) and HeLa S3 (cervical adenocarcinoma) cells with these compounds for 48 h. The cell viability was determined with MTT assays [33].

RAW264.7 cells = assay: Cell proliferation (MTT) assay, RAW264.7; conditions: for IC50: Mus musculus, RAW264.7, 48 h, read-out: IC50 (cell viability, MTT); for IC50 (cell viability, MTT): RAW264.7 cells, 48 h treatment
Protocol: as §1, §2

[1] = system: NF-κB p65 nuclear translocation; assay: NF-κB p65 immunofluorescence staining, LPS-stimulated RAW264.7; type: cell-based; conditions: RAW264.7, 25 µg/ml pre-treatment 4 h, LPS 1 h
Protocol: NF-κB Activation Kits (Thermo Scientific) were used as previously described. Cells were pretreated with compounds for 4 h before being stimulated with lipopolysaccharide (LPS) ortumour necrosis factor α (TNFα) for 1 h. Cells were then fixed and permeabilized before probing with NF-κB p65 antibody for 1 h. Staining solution (containing DyLight 488 Goat Anti-Rabbit and Hoechst dye) was then added and incubated for 1 h. The plate with stained cells was evaluated using a Cellomics ArrayScan HCS Reader (Cellomics, PA, USA). Data were captured, extracted and analyzed with ArrayScan II Data Acquisition and Data Viewer version 3.0 (Cellomics).
NF-κB acts as a central mediator of inflammatory responses and compounds that inhibit NF-κB activation are potential anti-inflammatory agents. To evaluate this, we performed immunofluorescence staining of NF-κB p65. […] In response to LPS stimulation, NF-κB p65 translocated from cytoplasm into the nucleus, implying NF-κB activation (Figure 3). […] Moreover, we observed that complex 6–8 required higher concentration (>50 µg/ml) to elicit similar inhibitory effect (data not shown).
Figure 3 Effect of N4-substituteted thiosemicarbazone complexes on LPS-induced NF-κB nuclear transloction in RAW264.7 macrophage cells. Staining of Hoechst (nucleus) and NF-κB in RAW264.7 cells. […]

[2] = system: carrageenan-induced paw edema; assay: Carrageenan-induced paw edema mouse model; type: in vivo, C57BL/6 mice; conditions: 2.0 mg/kg i.p., 1 h after carrageenan; control 7.3±0.8 mm
Protocol: Male C57BL/6 mice at age 8–12 weeks old were from Jackson Laboratories, USA. Mice were administrated intraperitoneally (i.p.) with two different doses of complex 5 (2.5 mg/kg and 5 mg/kg). Negative control groups were i.p. injected with 200 µl of vehicle (50% v/v ethanol). A standard drug 2 mg/kg dexamethasone (Sigma) was included in the study. After 1 h, paw edema was induced by injecting 50 µl of 1% carrageenan (Sigma) through the plantar tissue at the right hind paw of each mouse. The thickness of right paw of each mouse was measured at 1, 3 and 5 h after carrageenan was administered. Four animals per group were tested (n = 4). Quantification of right hind paw thickness were analyzed for statistical significance using Student's t-test. Animals were housed in individually ventilated cages in specific pathogen free facility, Animal Experimental Unit, University of Malaya. All efforts were made to minimize animal suffering and the number of animals used. At the end of the experiment, mice were euthanized by CO2 asphyxiation. Animal work was approved by the Faculty of Medicine Animal Care and Use Committee (FOMIACUC) at University of Malaya and reported according to ARRIVE guidelines.
To test the in vivo inhibitory effect of complex 5 on inflammation, we administrated two doses of complex 5 (2.5 mg/kg and 5.0 mg/kg) into C57BL/6 wild type mice through i.p. injection. For a positive control, we performed i.p. injection of 2.0 mg/kg dexamethasone into the mice. After 1 h, paw edema in the mice was induced by injecting 1% carrageenan to the right hind paw. The paw sizes were measured at 1, 3 and 5 h after edema induction. The edema formation at the mice paw was due to inflammatory response causing the accumulation of histamine, serotonin, prostaglandin and other secreted inflammatory mediators.
Male C57BL/6 mice at age of 8-12 weeks old were non-injected or injected i.p. with 2.5 mg/kg or 5.0 mg/kg complex 5, whereas for positive controls, mice were injected i.p. with 2.0 mg/kg dexamethasone. After 1 h, acute inflammation was induced in the right hind paw of each mice by injecting 50 µl of carrageenan. The size of the paw were measured after (A) 1 h or, (B) 1, 3 and 5 h post carrageenan injection. Shown were mean ±SD (n = 4). Statistical analysis was performed with Student's t-test.

CCNC(=S)N/N=C/c1cccc(O)c1O [ligand 4]
Antioxidant capacity, Trolox equivalent (ORAC antioxidant assay): 7.54±1.61 µM TE per 100 µM
IC50 (HeLa S3 cells): 87.2 ± 1.81 µg/mL (≈ 364 µM)
IC50 (RAW264.7 cells): 19.4 ± 1.07 µg/mL (≈ 80.9 µM)

CNC(=S)N/N=C/c1cccc(O)c1O [ligand 2]
Antioxidant capacity, Trolox equivalent (ORAC antioxidant assay): 8.23±0.43 µM TE per 100 µM
IC50 (HeLa S3 cells): > 100 µg/mL
IC50 (RAW264.7 cells): 27.8 ± 0.96 µg/mL (≈ 124 µM)

Oc1cccc(/C=N/NC(=S)Nc2ccccc2)c1O [ligand 3]
Antioxidant capacity, Trolox equivalent (ORAC antioxidant assay): 9.71±0.77 µM TE per 100 µM
IC50 (HeLa S3 cells): > 100 µg/mL
IC50 (RAW264.7 cells): 31.5 ± 1.82 µg/mL (≈ 110 µM)

NC(=S)N/N=C/c1cccc(O)c1O [ligand 1]
Antioxidant capacity, Trolox equivalent (ORAC antioxidant assay): 5.18±0.05 µM TE per 100 µM
Inhibition of LPS-mediated NF-κB p65 nuclear translocation [1]: did not affect NF-κB translocation
IC50 (HeLa S3 cells): > 100 µg/mL
IC50 (RAW264.7 cells): 22.8 ± 1.67 µg/mL (≈ 108 µM)

Oc1cccc2c1[O][Ni-2]1([P+](c3ccccc3)(c3ccccc3)c3ccccc3)[S]C(Nc3ccccc3)=N[N+]1=C2 (stereo not drawn) [complex 7]
Antioxidant capacity, Trolox equivalent (ORAC antioxidant assay): 9.37±1.14 µM TE per 100 µM
IC50 (cell viability, MTT) (HeLa S3 cells): >100 µg/mL
IC50 (cell viability, MTT) (RAW264.7 cells): 42.44 ± 4.17 µg/mL

CNC(=S)NN=Cc1cccc(O)c1[O-].[Cl-].[Ni+2].c1ccc(P(c2ccccc2)c2ccccc2)cc1 [complex 6, (6-Hydroxy-2-{[2-(N-methylcarbamothiolyl)hydrazin-1-ylidene-[kappa]2N1,S]methyl}phenolato-[kappa]O1)(triphenylphosphane-[kappa]P)nickel(II) chloride]
Antioxidant capacity, Trolox equivalent (ORAC antioxidant assay): 15.65±0.89 µM TE per 100 µM
IC50 (cell viability, MTT) (HeLa S3 cells): 77.55 ± 1.56 µg/mL
IC50 (cell viability, MTT) (RAW264.7 cells): 37.73 ± 3.62 µg/mL

O=c1c(O)c(-c2ccc(O)c(O)c2)oc2cc(O)cc(O)c12 [Quercetin, quercetin dehydrate, reference compound]
Antioxidant capacity, Trolox equivalent (ORAC antioxidant assay): 24.41±0.35 µM TE per 100 µM

CCNC1=N[N+]2=Cc3cccc(O)c3[O][Ni-2]2([P+](c2ccccc2)(c2ccccc2)c2ccccc2)[S]1 (stereo not drawn) [complex 8]
Antioxidant capacity, Trolox equivalent (ORAC antioxidant assay): 13.34±1.49 µM TE per 100 µM
IC50 (cell viability, MTT) (HeLa S3 cells): >100 µg/mL
IC50 (cell viability, MTT) (RAW264.7 cells): 56.31 ± 3.86 µg/mL

C[C@@H]1C[C@H]2[C@@H]3CCC4=CC(=O)C=C[C@]4(C)[C@@]3(F)[C@@H](O)C[C@]2(C)[C@@]1(O)C(=O)CO [dexamethasone, reference compound]
Paw size [2]: 4.6±0.4 mm
